Molecules are shown by their SMILES.

The values below come from patent US9725465B2, “Biaryl acetamide compounds and methods of use thereof” (Ambit Biosciences Corporation, priority 2013, dated 2017).

In one experiment the target is KIT kinase (Homo sapiens (Human), UniProt P10721). Kind of experiment: Competition binding assay (Kd), KIT. Conditions: competition binding assay. The procedure, abridged: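 Kinase, as T7 phage fusion or HEK-293-expressed DNA-tagged protein, competed off immobilised ligand beads by test compound (eleven-point threefold dilutions, from 100× DMSO stocks). Eluted kinase quantified by qPCR to derive Kd; DMSO used as control.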

The target of the next experiment is FLT3-ITD (Homo sapiens (Human), UniProt P36888, INS600HVDFREYEYD). Kind of experiment: pFLT3 MSD assay, Ba/F3 FLT3-ITD. The format is cell-based. Conditions: Ba/F3 FLT3-ITD cells, 2 hours, read-out: BaF3-FLT3-ITD pFlt3 IC50.
The next experiment concerns the target FLT3 kinase (Homo sapiens (Human), UniProt P36888). Kind of experiment: Competition binding assay (Kd), FLT3. Conditions: competition binding assay.

Sequence of FLT3-ITD (P36888 other isoform, or with tags, fused parts or gaps limits assumed, stated change not applied): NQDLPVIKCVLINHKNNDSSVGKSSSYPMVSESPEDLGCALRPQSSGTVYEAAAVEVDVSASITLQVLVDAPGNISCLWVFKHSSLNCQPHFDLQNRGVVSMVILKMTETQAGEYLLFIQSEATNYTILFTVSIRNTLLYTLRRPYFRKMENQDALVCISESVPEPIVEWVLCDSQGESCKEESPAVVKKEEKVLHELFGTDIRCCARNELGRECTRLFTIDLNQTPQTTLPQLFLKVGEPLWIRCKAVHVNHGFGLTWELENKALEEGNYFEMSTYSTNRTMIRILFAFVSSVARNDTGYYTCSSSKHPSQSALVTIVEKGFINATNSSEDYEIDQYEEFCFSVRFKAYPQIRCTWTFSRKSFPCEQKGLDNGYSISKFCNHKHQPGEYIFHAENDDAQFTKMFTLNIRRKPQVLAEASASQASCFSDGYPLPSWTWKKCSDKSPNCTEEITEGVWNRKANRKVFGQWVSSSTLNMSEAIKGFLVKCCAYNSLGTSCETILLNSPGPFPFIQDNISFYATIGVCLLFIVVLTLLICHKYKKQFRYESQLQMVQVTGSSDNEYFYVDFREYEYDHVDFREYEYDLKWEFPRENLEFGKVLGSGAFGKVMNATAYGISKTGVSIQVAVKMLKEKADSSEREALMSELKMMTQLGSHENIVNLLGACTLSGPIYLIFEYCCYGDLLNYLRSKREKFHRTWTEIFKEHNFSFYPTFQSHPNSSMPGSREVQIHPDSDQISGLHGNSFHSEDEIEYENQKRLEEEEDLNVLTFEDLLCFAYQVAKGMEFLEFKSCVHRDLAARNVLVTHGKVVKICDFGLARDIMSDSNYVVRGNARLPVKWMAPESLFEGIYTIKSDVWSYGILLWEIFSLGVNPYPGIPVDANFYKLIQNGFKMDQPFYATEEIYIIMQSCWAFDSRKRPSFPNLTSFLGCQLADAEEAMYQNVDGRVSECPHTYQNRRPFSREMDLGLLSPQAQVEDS
Sequence of KIT kinase (P10721 26-976): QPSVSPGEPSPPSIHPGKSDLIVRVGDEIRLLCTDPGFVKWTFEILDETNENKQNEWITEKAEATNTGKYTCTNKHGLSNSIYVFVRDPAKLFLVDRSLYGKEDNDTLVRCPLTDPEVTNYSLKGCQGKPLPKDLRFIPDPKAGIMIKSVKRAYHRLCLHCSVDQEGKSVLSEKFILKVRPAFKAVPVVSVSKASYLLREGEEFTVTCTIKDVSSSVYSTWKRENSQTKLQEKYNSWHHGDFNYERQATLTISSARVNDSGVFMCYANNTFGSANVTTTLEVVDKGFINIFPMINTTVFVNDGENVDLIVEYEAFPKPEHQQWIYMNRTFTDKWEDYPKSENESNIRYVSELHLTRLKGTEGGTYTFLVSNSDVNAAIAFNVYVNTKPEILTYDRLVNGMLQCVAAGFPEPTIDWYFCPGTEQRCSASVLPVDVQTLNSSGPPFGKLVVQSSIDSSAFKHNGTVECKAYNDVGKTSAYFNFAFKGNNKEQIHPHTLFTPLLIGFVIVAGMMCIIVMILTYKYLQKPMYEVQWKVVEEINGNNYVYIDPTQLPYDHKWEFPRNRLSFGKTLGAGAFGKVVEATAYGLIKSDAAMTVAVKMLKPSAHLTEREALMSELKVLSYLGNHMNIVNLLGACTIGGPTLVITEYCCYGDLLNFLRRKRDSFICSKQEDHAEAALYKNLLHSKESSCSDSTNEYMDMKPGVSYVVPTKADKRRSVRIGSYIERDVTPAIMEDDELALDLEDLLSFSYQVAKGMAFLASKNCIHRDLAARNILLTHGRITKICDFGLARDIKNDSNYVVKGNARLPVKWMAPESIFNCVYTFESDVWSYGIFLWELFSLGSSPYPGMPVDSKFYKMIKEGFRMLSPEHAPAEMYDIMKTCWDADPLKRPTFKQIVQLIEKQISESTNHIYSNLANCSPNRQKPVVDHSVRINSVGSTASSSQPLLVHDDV
Sequence of FLT3 kinase (P36888 27-993): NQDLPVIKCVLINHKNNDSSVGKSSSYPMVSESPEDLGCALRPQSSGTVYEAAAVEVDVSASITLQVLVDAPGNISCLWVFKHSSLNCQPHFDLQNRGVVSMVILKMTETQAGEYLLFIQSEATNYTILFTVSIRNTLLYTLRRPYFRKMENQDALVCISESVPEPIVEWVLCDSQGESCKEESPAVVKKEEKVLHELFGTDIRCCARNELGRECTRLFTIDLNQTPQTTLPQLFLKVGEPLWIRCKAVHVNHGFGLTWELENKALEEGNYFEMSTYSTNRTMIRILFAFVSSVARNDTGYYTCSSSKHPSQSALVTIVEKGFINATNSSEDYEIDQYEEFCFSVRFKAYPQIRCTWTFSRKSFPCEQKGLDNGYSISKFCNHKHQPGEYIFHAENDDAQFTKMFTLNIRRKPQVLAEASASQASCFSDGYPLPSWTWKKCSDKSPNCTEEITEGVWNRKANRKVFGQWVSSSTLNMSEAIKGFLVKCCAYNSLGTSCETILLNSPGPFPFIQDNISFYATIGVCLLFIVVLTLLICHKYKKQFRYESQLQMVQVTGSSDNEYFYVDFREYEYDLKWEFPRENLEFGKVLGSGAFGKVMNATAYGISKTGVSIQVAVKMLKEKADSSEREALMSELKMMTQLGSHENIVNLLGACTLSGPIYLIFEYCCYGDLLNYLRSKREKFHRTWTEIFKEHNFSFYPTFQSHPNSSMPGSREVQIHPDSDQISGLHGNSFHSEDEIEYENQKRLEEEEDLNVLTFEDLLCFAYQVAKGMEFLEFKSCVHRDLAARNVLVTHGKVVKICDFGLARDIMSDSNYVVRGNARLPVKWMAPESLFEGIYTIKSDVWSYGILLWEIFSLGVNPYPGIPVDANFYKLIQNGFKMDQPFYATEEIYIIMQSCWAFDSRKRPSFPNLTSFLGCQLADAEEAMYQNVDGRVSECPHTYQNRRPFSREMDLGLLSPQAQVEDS

For `COc1cc2cc(-c3ccc(CC(=O)Nc4cc(C5(C(F)(F)F)CC5)on4)c(F)c3)cnc2cc1OCCO` [Example 88, 2-(2-fluoro-4-(7-(2-hydroxyethoxy)-6-methoxyquinolin-3-yl)phenyl)-N-(5-(1-(trifluoromethyl)cyclopropyl)isoxazol-3-yl)acetamide], the Kd at KIT kinase and on FLT3 kinase was < 5 nM each time. Moreover, the IC50 (commonly the concentration at which inhibition is half-maximal) on FLT3-ITD is < 10 nM.

Turning to `COc1cc2nc(-c3ccc(CC(=O)Nc4cc(C5(C(F)(F)F)CC5)on4)c(F)c3)cnc2cc1OC1CN(C)C1` [Example 90, 2-(2-fluoro-4-(7-methoxy-6-((1-methylazetidin-3-yl)oxy)quinoxalin-2-yl)phenyl)-N-(5-(1-(trifluoromethyl)cyclopropyl)isoxazol-3-yl)acetamide], the Kd at KIT kinase and at FLT3 kinase was < 5 nM in each case. The IC50 on FLT3-ITD was < 10 nM.

Take `COc1cc2cc(-c3ccc(CC(=O)Nc4cc(C(C)(C)C(F)(F)F)on4)c(F)c3)cnc2cc1OCCO` [Example 91, 2-(2-fluoro-4-(7-(2-hydroxyethoxy)-6-methoxyquinolin-3-yl)phenyl)-N-(5-(1,1,1-trifluoro-2-methylpropan-2-yl)isoxazol-3-yl)acetamide]: the Kd at KIT kinase and at FLT3 kinase was < 5 nM in each case. Besides, the IC50 on FLT3-ITD was < 10 nM.

Regarding `CC(C)(C)c1cc(NC(=O)Cc2ccc(-c3cnc4[nH]cc(C5(O)COC5)c4c3)cc2)no1` [Example 97, N-(5-tert-butylisoxazol-3-yl)-2-[4-[3-(3-hydroxyoxetan-3-yl)-1H-pyrrolo[2,3-b]pyridin-5-yl]phenyl]acetamide], the Kd at KIT kinase and on FLT3 kinase was < 5 nM in each case. Also, the IC50 on FLT3-ITD was < 10 nM.

In the case of `O=C(Cc1ccc(-c2cnc3nn4c(c3c2)OC(CO)C4)cc1F)Nc1cc(C2(C(F)(F)F)CC2)on1` (stereo not drawn) [Example 98, 2-[2-fluoro-4-[2-(hydroxy-methyl)-2,3-dihydro-oxazolo[3,4]pyrazolo[1,3-b]pyridin-8-yl]phenyl]-N-[5-[1-(trifluoro-methyl)cyclopropyl]isoxazol-3-yl]acetamide], the Kd at KIT kinase and on FLT3 kinase was < 5 nM each time. Also, on FLT3-ITD, the IC50 was < 10 nM.

Turning to `CN1CCN(C(=O)c2cc3cc(-c4ccc(CC(=O)Nc5cc(C(C)(C)C)on5)cc4)cnc3[nH]2)CC1` [Example 99, N-(5-tert-butylisoxazol-3-yl)-2-[4-[2-(4-methylpiperazine-1-carbonyl)-1H-pyrrolo[2,3-b]pyridin-5-yl]phenyl]acetamide], the Kd at KIT kinase and on FLT3 kinase was < 5 nM each time. Further, on FLT3-ITD, the IC50 is < 10 nM.

As for `CN(C)CCNC(=O)c1n[nH]c2ncc(-c3ccc(CC(=O)Nc4cc(C(C)(C)C)on4)cc3)cc12` [Example 100, 5-[4-[2-[(5-tert-butylisoxazol-3-yl)amino]-2-oxo-ethyl]phenyl]-N-[2-(dimethylamino)ethyl]-1H-pyrazolo[3,4-b]pyridine-3-carboxamide], the figures for the equilibrium dissociation constant (Kd) at KIT kinase and on FLT3 kinase were 5 to 20 nM and < 5 nM, respectively. In addition, on FLT3-ITD, the IC50 was < 10 nM.

Regarding `CC(C)(C)c1cc(NC(=O)Cc2ccc(-c3cnc4[nH]nc(-n5nccn5)c4c3)cc2)no1` [Example 101, N-(5-tert-butylisoxazol-3-yl)-2-[4-[3-(triazol-2-yl)-1H-pyrazolo[3,4-b]pyridin-5-yl]phenyl]acetamide], the Kd on KIT kinase and at FLT3 kinase was < 5 nM throughout. At FLT3-ITD, the IC50 is < 10 nM.

Regarding `O=C(Cc1ccc(-c2cnc3[nH]nc(OCC(F)F)c3c2)cc1F)Nc1cc(C2(C(F)(F)F)CC2)on1` [Example 102, 2-[4-[3-(2,2-difluoroethoxy)-1H-pyrazolo[3,4-b]pyridin-5-yl]-2-fluoro-phenyl]-N-[5-[1-(trifluoro-methyl)cyclopropyl]isoxazol-3-yl]acetamide], the Kd on KIT kinase and at FLT3 kinase was < 5 nM each time. Also, the IC50 on FLT3-ITD was < 10 nM.
